{
  "source": "paper doi:10.1101/2021.04.08.439011v1",
  "about": "(biorxiv, 2021)",
  "key": {"CDK4-cyclinD1": {"target": "CDK4-cyclinD1 (Homo sapiens, UniProt P11802)", "details": "0.1 µM; binder"}, "[1]": {"target": "TYK2(JH1domain-catalytic) (Homo sapiens, UniProt P29597)", "details": "0.1 µM; binder"}, "ABL2": {"target": "ABL2 (Homo sapiens, UniProt P42684)", "details": "0.1 µM; binder"}, "BMX": {"target": "BMX (Homo sapiens, UniProt P51813)", "sequence (P51813 whole entry)": "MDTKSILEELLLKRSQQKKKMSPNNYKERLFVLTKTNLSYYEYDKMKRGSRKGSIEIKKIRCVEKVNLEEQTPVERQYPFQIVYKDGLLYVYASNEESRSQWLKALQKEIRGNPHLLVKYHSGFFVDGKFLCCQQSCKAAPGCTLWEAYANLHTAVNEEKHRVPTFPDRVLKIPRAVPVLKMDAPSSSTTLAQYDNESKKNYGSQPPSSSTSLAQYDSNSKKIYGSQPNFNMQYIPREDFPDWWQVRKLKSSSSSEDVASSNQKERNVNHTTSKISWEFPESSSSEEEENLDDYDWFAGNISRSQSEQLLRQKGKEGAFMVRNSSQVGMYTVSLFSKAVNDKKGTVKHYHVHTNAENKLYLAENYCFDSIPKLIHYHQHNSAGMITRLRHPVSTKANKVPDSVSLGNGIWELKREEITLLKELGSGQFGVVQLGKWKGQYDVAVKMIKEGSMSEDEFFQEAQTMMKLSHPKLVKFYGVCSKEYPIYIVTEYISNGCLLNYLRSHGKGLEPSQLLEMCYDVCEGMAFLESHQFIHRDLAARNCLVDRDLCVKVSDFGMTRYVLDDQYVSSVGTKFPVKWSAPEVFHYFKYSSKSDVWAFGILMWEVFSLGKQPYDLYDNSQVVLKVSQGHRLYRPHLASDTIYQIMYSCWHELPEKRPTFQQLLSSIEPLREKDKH", "details": "0.1 µM; binder"}, "CDK19": {"target": "CDK19 (Homo sapiens, UniProt Q9BWU1)", "sequence (Q9BWU1 whole entry)": "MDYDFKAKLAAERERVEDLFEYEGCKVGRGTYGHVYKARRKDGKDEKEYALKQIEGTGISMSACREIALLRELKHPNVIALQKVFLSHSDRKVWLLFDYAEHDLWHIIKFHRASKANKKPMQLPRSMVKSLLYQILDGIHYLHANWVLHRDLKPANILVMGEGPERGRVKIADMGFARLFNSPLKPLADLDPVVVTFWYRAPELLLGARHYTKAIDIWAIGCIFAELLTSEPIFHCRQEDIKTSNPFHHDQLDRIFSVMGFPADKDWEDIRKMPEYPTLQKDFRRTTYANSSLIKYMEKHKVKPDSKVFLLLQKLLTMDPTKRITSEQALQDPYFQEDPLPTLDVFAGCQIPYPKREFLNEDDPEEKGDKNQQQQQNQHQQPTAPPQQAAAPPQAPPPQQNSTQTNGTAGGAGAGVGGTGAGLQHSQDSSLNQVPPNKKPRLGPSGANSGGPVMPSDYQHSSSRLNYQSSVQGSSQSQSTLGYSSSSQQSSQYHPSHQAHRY", "details": "0.1 µM; binder"}, "CHEK1": {"target": "CHEK1 (Homo sapiens, UniProt O14757)", "sequence (O14757 whole entry)": "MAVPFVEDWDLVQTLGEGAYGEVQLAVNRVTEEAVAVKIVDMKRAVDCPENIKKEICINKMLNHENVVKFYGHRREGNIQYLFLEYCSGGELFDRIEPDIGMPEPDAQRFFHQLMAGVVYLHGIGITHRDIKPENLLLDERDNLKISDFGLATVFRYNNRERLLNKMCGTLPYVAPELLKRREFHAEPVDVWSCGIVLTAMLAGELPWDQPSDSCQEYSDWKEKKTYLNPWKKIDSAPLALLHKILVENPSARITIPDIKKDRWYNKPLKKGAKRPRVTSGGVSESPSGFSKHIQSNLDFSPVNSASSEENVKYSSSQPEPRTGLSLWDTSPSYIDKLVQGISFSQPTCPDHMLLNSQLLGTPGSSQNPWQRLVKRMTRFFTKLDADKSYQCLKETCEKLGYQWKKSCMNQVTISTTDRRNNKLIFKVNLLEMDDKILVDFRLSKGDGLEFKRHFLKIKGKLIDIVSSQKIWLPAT", "details": "0.1 µM; binder"}, "CLK3": {"target": "CLK3 (Homo sapiens, UniProt P49761)", "details": "0.1 µM; binder"}, "FLT3(N841I)": {"target": "FLT3(N841I) (Homo sapiens, UniProt P36888, N841I)", "details": "0.1 µM; binder"}, "LRRK2": {"target": "LRRK2 (Homo sapiens, UniProt Q5S007)", "sequence (Q5S007 whole entry)": "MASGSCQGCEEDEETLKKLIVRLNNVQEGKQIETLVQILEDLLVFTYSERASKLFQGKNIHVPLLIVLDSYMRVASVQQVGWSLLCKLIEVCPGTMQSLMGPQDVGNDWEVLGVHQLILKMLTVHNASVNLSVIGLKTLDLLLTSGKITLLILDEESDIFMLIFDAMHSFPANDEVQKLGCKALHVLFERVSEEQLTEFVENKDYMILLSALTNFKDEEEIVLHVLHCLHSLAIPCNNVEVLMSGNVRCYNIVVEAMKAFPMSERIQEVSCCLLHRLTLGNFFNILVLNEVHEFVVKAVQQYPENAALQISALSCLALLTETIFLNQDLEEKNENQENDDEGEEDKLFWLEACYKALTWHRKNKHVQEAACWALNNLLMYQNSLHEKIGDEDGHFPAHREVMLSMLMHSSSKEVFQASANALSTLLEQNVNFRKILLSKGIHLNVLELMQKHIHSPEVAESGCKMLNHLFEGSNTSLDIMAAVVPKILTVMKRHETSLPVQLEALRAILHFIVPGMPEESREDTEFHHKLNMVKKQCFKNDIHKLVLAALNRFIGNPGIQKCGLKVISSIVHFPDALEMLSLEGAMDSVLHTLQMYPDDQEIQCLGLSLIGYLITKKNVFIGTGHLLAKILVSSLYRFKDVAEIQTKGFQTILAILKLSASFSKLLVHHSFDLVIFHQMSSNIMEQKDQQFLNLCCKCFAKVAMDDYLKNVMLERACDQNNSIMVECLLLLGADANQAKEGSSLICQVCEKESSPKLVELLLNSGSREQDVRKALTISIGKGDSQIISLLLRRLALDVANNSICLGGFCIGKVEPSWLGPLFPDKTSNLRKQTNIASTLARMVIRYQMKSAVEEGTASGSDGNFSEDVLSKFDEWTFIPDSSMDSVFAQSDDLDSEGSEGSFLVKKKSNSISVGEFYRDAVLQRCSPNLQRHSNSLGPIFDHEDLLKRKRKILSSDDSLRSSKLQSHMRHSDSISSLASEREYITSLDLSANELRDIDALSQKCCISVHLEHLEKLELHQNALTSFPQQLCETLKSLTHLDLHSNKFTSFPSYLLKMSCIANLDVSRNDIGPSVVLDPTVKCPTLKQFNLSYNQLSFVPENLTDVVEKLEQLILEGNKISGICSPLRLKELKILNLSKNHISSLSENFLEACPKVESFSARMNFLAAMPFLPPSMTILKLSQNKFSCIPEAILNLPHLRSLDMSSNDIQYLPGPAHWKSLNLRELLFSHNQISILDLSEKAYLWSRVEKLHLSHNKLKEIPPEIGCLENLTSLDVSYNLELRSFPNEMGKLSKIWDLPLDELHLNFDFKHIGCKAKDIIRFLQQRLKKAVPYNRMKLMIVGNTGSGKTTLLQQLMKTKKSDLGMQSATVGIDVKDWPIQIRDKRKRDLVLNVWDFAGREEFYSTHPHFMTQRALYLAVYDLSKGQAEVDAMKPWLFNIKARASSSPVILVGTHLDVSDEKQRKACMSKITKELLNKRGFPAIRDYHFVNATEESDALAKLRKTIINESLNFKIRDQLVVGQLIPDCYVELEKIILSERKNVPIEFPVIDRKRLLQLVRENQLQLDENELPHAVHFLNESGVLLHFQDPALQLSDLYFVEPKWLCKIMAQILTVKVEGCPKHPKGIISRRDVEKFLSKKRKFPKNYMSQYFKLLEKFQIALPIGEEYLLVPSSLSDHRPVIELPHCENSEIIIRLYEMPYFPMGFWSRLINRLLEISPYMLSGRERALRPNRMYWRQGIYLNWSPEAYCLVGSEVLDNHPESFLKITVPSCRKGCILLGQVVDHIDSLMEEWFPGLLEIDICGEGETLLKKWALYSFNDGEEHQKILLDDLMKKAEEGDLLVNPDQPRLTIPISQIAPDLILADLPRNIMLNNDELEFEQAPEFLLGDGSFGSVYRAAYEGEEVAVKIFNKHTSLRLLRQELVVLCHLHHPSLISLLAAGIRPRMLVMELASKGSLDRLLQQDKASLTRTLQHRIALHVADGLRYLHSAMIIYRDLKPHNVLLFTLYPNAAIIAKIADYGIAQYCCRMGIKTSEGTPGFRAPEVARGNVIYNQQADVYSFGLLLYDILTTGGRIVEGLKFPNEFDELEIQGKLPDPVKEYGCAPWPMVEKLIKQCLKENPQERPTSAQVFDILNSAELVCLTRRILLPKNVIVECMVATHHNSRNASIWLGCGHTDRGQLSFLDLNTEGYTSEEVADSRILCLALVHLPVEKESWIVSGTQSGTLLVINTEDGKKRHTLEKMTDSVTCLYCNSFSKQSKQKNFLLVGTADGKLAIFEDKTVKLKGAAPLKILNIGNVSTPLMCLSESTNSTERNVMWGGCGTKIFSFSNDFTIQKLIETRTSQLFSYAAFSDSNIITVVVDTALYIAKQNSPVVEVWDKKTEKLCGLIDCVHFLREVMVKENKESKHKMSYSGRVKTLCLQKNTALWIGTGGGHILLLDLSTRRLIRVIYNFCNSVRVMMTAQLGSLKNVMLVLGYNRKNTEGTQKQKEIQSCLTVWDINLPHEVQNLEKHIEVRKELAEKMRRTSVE", "details": "0.1 µM; binder"}, "MAK": {"target": "MAK (Homo sapiens, UniProt P20794)", "details": "0.1 µM; binder"}, "MAP4K4": {"target": "MAP4K4 (Homo sapiens, UniProt O95819)", "details": "0.1 µM; binder"}, "NEK2": {"target": "NEK2 (Homo sapiens, UniProt P51955)", "details": "0.1 µM; binder"}, "NEK4": {"target": "NEK4 (Homo sapiens, UniProt P51957)", "sequence (P51957 whole entry)": "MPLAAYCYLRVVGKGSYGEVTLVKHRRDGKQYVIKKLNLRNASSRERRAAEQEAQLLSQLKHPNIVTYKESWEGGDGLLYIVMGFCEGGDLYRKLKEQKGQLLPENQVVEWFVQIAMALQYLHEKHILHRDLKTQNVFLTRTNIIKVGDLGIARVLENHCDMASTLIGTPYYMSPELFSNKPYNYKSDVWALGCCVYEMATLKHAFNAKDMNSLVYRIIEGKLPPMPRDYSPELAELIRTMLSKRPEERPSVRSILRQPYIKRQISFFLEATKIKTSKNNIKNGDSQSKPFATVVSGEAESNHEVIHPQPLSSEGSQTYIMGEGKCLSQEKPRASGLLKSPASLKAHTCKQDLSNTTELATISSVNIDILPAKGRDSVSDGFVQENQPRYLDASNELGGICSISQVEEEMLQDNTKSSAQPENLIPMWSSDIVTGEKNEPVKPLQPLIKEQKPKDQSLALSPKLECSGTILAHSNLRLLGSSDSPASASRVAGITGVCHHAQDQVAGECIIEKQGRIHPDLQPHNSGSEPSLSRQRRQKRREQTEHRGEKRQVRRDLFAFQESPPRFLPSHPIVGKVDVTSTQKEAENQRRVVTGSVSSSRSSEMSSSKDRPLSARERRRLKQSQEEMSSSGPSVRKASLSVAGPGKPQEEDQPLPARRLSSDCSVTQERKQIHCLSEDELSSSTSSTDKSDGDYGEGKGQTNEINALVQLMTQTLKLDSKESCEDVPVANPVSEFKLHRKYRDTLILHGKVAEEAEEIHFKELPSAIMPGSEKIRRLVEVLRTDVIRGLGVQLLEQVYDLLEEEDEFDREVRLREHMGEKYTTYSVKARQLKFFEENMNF", "details": "0.1 µM; binder"}, "PAK3": {"target": "PAK3 (Homo sapiens, UniProt O75914)", "details": "0.1 µM; binder"}, "PKAC-alpha": {"target": "PKAC-alpha (Homo sapiens, UniProt P17612)", "details": "0.1 µM; binder"}, "SGK3": {"target": "SGK3 (Homo sapiens, UniProt Q96BR1)", "details": "0.1 µM; binder"}, "TAOK3": {"target": "TAOK3 (Homo sapiens, UniProt Q9H2K8)", "details": "0.1 µM; binder"}, "YSK1": {"target": "YSK1 (Homo sapiens, UniProt O00506)", "details": "0.1 µM; binder"}, "[2]": {"target": "RSK4(Kin.Dom.1-N-terminal) (Homo sapiens, UniProt Q9UK32)", "details": "0.1 µM; binder"}, "[3]": {"target": "RPS6KA5(Kin.Dom.1-N-terminal) (Homo sapiens, UniProt O75582)", "details": "0.1 µM; binder"}, "[4]": {"target": "RSK2(Kin.Dom.2-C-terminal) (Homo sapiens, UniProt P51812)", "details": "0.1 µM; binder"}, "[5]": {"target": "JAK2(JH1domain-catalytic) (Homo sapiens, UniProt O60674)", "details": "0.1 µM; binder"}, "AKT1": {"target": "AKT1 (Homo sapiens, UniProt P31749)", "details": "1 µM; binder"}, "ERK1": {"target": "ERK1 (Homo sapiens, UniProt P27361)", "details": "1 µM; binder"}, "GRK4": {"target": "GRK4 (Homo sapiens, UniProt P32298)", "details": "1 µM; binder"}, "LCK": {"target": "LCK (Homo sapiens, UniProt P06239)", "details": "1 µM; binder"}, "PIP5K1A": {"target": "PIP5K1A (Homo sapiens, UniProt Q99755)", "details": "1 µM; binder"}, "PIP5K1C": {"target": "PIP5K1C (Homo sapiens, UniProt O60331)", "details": "1 µM; binder"}, "SRPK3": {"target": "SRPK3 (Homo sapiens, UniProt Q9UPE1)", "details": "1 µM; binder"}, "PFCDPK1 (P. falciparum)": {"target": "PFCDPK1 (P. falciparum) (Plasmodium falciparum, UniProt P62344)", "details": "1 µM; binder"}},
  "data": [
    {"smiles": "CNc1ncc2cc(-c3ccc(-c4cccc(C)n4)cc3Cl)c(=O)n(C[C@H]3OC[C@H](N)CO3)c2n1", "note": "[compound 6, G-5555]", "values": [
      {"measurement": "Percent Control", "setting": "CDK4-cyclinD1", "result": 100, "unit": "%"},
      {"measurement": "Percent Control", "setting": "[1]", "result": 94, "unit": "%"},
      {"measurement": "Percent Control", "setting": "ABL2", "result": 100, "unit": "%"},
      {"measurement": "Percent Control", "setting": "BMX", "result": 100, "unit": "%"},
      {"measurement": "Percent Control", "setting": "CDK19", "result": 87, "unit": "%"},
      {"measurement": "Percent Control", "setting": "CHEK1", "result": 100, "unit": "%"},
      {"measurement": "Percent Control", "setting": "CLK3", "result": 100, "unit": "%"},
      {"measurement": "Percent Control", "setting": "FLT3(N841I)", "result": 100, "unit": "%"},
      {"measurement": "Percent Control", "setting": "LRRK2", "result": 83, "unit": "%"},
      {"measurement": "Percent Control", "setting": "MAK", "result": 90, "unit": "%"},
      {"measurement": "Percent Control", "setting": "MAP4K4", "result": 100, "unit": "%"},
      {"measurement": "Percent Control", "setting": "NEK2", "result": 100, "unit": "%"},
      {"measurement": "Percent Control", "setting": "NEK4", "result": 100, "unit": "%"},
      {"measurement": "Percent Control", "setting": "PAK3", "result": 100, "unit": "%"},
      {"measurement": "Percent Control", "setting": "PKAC-alpha", "result": 100, "unit": "%"},
      {"measurement": "Percent Control", "setting": "SGK3", "result": 93, "unit": "%"},
      {"measurement": "Percent Control", "setting": "TAOK3", "result": 100, "unit": "%"},
      {"measurement": "Percent Control", "setting": "YSK1", "result": 40, "unit": "%"},
      {"measurement": "Percent Control", "setting": "[2]", "result": 97, "unit": "%"},
      {"measurement": "Percent Control", "setting": "[3]", "result": 100, "unit": "%"},
      {"measurement": "Percent Control", "setting": "[4]", "result": 83, "unit": "%"},
      {"measurement": "Percent Control", "setting": "[5]", "result": 99, "unit": "%"},
      {"measurement": "Percent Control", "setting": "AKT1", "result": 100, "unit": "%"},
      {"measurement": "Percent Control", "setting": "ERK1", "result": 74, "unit": "%"},
      {"measurement": "Percent Control", "setting": "GRK4", "result": 100, "unit": "%"},
      {"measurement": "Percent Control", "setting": "LCK", "result": 11, "unit": "%"},
      {"measurement": "Percent Control", "setting": "PIP5K1A", "result": 67, "unit": "%"},
      {"measurement": "Percent Control", "setting": "PIP5K1C", "result": 100, "unit": "%"},
      {"measurement": "Percent Control", "setting": "SRPK3", "result": 100, "unit": "%"},
      {"measurement": "Percent Control", "setting": "PFCDPK1 (P. falciparum)", "result": 0.4, "unit": "%"}
    ]}
  ]
}
